Type in all cases: functional
Assay [1] concerns Staphylococcus aureus. As to the kind of experiment: Antibacterial activity against Staphylococcus aureus RCMB 010028 assessed as diameter of zone inhibition after 24 hrs by agar well diffusion assay.
Assay [2] has as its system Escherichia coli. As to the kind of experiment: Antibacterial activity against Escherichia coli RCMB 010052 assessed as diameter of zone inhibition after 24 hrs by agar well diffusion assay. For orientation: Agar diffusion results depend on both activity and mobility in agar.
Assay [3] concerns Pseudomonas aeruginosa. Kind of assay: Antibacterial activity against Pseudomonas aeruginosa RCMB 010043 after 24 hrs by serial dilution method. The conditions noted are these: RCMB 010043, 24 h.
Assay [4] concerns Staphylococcus aureus. Kind of assay: Antibacterial activity against Staphylococcus aureus RCMB 010028 after 24 hrs by serial dilution method. The conditions noted are these: RCMB 010028, 24 h.
The test system of assay [5] is Pseudomonas aeruginosa. As to the kind of experiment: Antibacterial activity against Pseudomonas aeruginosa RCMB 010043 assessed as diameter of zone inhibition after 24 hrs by agar well diffusion assay.
For assay [6], the system named is Aspergillus fumigatus. Kind of assay: Antifungal activity against Aspergillus fumigatus RCMB 02568 assessed as diameter of zone inhibition after 48 hrs by agar well diffusion assay.
In assay [7] the test system is Escherichia coli. As to the kind of experiment: Antibacterial activity against Escherichia coli RCMB 010052 after 24 hrs by serial dilution method. As to conditions: RCMB 010052, 24 h.
The test system of assay [8] is Mycobacterium tuberculosis. Kind of assay: Antitubercular activity against Mycobacterium tuberculosis RCMB 010126 clinical isolate after 4 days by microplate alamar blue assay. The conditions noted are these: for MIC: Mycobacterium tuberculosis, RCMB 010126, 96 h. In general terms: The colour change of resazurin is a common sign of viable cells or microbes.
Assay [9] deals with Candida albicans. Kind of assay: Antifungal activity against Candida albicans RCMB 05036 assessed as diameter of zone inhibition after 48 hrs by agar well diffusion assay.
For assay [10], the system named is Aspergillus fumigatus. Kind of assay: Antifungal activity against Aspergillus fumigatus RCMB 02568 after 24 hrs by serial dilution method. The conditions noted are these: RCMB 02568, 24 h.
In assay [11] the test system is Candida albicans. As to the kind of experiment: Antifungal activity against Candida albicans RCMB 05036 after 24 hrs by serial dilution method. The conditions noted are these: RCMB 05036, 24 h.
The test system of assay [12] is Escherichia coli. Kind of assay: Potency index, ratio of ciprofloxacin MIC to compound MIC for Escherichia coli RCMB 010052.
Assay [13] concerns Pseudomonas aeruginosa. As to the kind of experiment: Potency index, ratio of ciprofloxacin MIC to compound MIC for Pseudomonas aeruginosa RCMB 010043.

Experimental findings from ChEMBL document CHEMBL4308854, “Novel indole-thiazolidinone conjugates: Design, synthesis and whole-cell phenotypic evaluation as a novel class of antimicrobial agents” (Eur J Med Chem, 2018) are described below.

In brackets after ≈: the same amount, converted by molar mass.

Regarding `CCOC(=O)c1sc(/N=C2\NC(=O)/C(=C3/C(=O)Nc4ccc(Br)cc43)S2)nc1C`, the “diameter of the inhibition zone (DIZ)” value in [1] is 20.1 mm; in [2], 21.1 mm; in assay [5] it was 19.4 mm; in [6] it was 20.6 mm; in [9], 21.3 mm. Moreover, the MIC (usually the least concentration at which growth counts as inhibited) stood at 3.9 µg/mL (≈ 7.9 µM) in [3]; 3.9 µg/mL (≈ 7.9 µM) in assay [4]; 1.95 µg/mL (≈ 3.95 µM) in assay [7]; 1.56 µg/mL (≈ 3.16 µM) in [8]; 3.9 µg/mL (≈ 7.9 µM) in assay [10]; 1.95 µg/mL (≈ 3.95 µM) in assay [11]. For the same compound, the “inhibition (INH)” value in assay [8] is on record as 86.31%.
For `CC(=O)c1sc(/N=C2\NC(=O)/C(=C3/C(=O)Nc4ccccc43)S2)nc1C`, the “diameter of the inhibition zone (DIZ)” value amounted to 20.3 mm in [1]; 22.8 mm in assay [2]; 19.9 mm in [5]; 21.5 mm in assay [6]; 22.7 mm in assay [9]. The MIC in [3] was found to be 3.9 µg/mL (≈ 10.1 µM); in assay [4] it was 3.9 µg/mL (≈ 10.1 µM); in assay [7], 0.98 µg/mL (≈ 2.55 µM); in assay [8], 1.56 µg/mL (≈ 4.06 µM); in assay [10], 1.95 µg/mL (≈ 5.07 µM); in assay [11], 0.98 µg/mL (≈ 2.55 µM). In addition, the Ratio in assay [12] is 2. Also, the “inhibition (INH)” value in [8] was determined as 63.24%.
Consider `CC(=O)c1sc(/N=C2\NC(=O)/C(=C/c3cn(C)c4ccccc34)S2)nc1C`, for which the “diameter of the inhibition zone (DIZ)” value came out at 15.3 mm in assay [1]; 15.9 mm in assay [2]; 14.2 mm in [5]; 16.2 mm in assay [6]; 16.9 mm in assay [9]. Besides, the “inhibition (INH)” value in assay [8] is 34.32%.
`CC(=O)c1sc(/N=C2\NC(=O)/C(=C3/C(=O)Nc4ccc(Br)cc43)S2)nc1C`: the “diameter of the inhibition zone (DIZ)” value was 18.5 mm in assay [1]; 20.4 mm in assay [2]; 18.6 mm in assay [5]; 17.6 mm in assay [6]; 18.8 mm in [9]. Besides, the “inhibition (INH)” value in [8] turned out to be 43.21%. Also, the MIC in [8] is 12.5 µg/mL (≈ 26.9 µM).
`CCOC(=O)c1sc(/N=C2\NC(=O)/C(=C3/C(=O)Nc4ccc(F)cc43)S2)nc1C`: the “diameter of the inhibition zone (DIZ)” value turned out to be 20.5 mm in assay [1]; 21.5 mm in assay [2]; 20.2 mm in [5]; 21.3 mm in [6]; 22.1 mm in assay [9]. The MIC amounted to 3.9 µg/mL (≈ 9.02 µM) in assay [3]; 3.9 µg/mL (≈ 9.02 µM) in assay [4]; 1.95 µg/mL (≈ 4.51 µM) in [7]; 1.56 µg/mL (≈ 3.61 µM) in assay [8]; 1.95 µg/mL (≈ 4.51 µM) in assay [10]; 1.95 µg/mL (≈ 4.51 µM) in assay [11]. In assay [8], the “inhibition (INH)” value was determined as 62.15%.
With `C[C@@H]1[C@H](O)[C@@H](C)/C=C/C=C/C=C/C=C/C=C/C=C/C=C/[C@H](O[C@@H]2O[C@H](C)[C@@H](O)[C@H](N)[C@@H]2O)C[C@@H]2O[C@](O)(C[C@@H](O)C[C@@H](O)[C@H](O)CC[C@@H](O)C[C@@H](O)CC(=O)O[C@H]1C)C[C@H](O)[C@H]2C(=O)O` [AMPHOTERICIN B], the “diameter of the inhibition zone (DIZ)” value in [6] is on record as 23.7 mm; in assay [9] it was 25.4 mm. Also, the MIC in assay [10] worked out at 1.95 µg/mL (≈ 2.11 µM); in [11], 0.98 µg/mL (≈ 1.06 µM).
Turning to `CCOC(=O)c1sc(/N=C2\NC(=O)/C(=C3/C(=O)N(C)c4ccc(Cl)cc43)S2)nc1C`, the “diameter of the inhibition zone (DIZ)” value in [1] came to 21.4 mm; in assay [2] it was 22.3 mm; in [5], 21.5 mm; in [6], 20.8 mm; in [9], 21.3 mm. The MIC in [3] is 1.95 µg/mL (≈ 4.21 µM); in assay [4] it was 1.95 µg/mL (≈ 4.21 µM); in [7] it was 0.98 µg/mL (≈ 2.12 µM); in [8] it was 0.78 µg/mL (≈ 1.68 µM); in [10], 3.9 µg/mL (≈ 8.42 µM); in assay [11], 1.95 µg/mL (≈ 4.21 µM). Further, the Ratio in assay [12] and in assay [13] was 2 in each case. For the same compound, the “inhibition (INH)” value in [8] turned out to be 68.31%.
For the compound `CC(=O)c1sc(/N=C2\NC(=O)/C(=C3/C(=O)Nc4ccc(OC(F)(F)F)cc43)S2)nc1C`, the “diameter of the inhibition zone (DIZ)” value in assay [1] amounted to 14.3 mm; in [2], 14.2 mm; in [5] it was 13.9 mm; in assay [6] it was 15.6 mm; in assay [9] it was 16.2 mm. For the same compound, in [8], the “inhibition (INH)” value was 41.58%. In assay [8], this compound yielded an MIC of 12.5 µg/mL (≈ 26.6 µM).
